Data published in patent US7332279B2 (Glycozym APS, priority 1999, dated 2008).

Experiments:
β4Gal-T2 = molecular target: T1, β4Gal-T2 (Homo sapiens, UniProt O60909); assay: Galactosyltransferase assay, recombinant β4Gal-T2, saccharide acceptors; format: biochemical
T1 construct: The kinetic properties were determined with partially purified, secreted forms of the enzymes; made in house; host or cells: baculovirus; insect cells (Sf9 / High Five)
T1 sequence (O60909 37-372 limits assumed): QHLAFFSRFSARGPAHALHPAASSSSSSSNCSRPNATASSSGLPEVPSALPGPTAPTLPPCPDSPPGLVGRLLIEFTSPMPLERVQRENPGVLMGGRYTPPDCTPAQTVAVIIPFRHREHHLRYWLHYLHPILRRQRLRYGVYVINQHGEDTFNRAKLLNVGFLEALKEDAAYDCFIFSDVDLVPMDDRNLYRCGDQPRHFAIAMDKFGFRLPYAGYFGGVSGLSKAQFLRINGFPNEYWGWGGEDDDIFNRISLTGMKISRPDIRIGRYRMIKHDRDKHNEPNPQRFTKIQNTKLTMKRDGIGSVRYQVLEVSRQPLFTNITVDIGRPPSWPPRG
Procedure: (§1) An expression construct (pAcGP67-β3Gal-T5-sol) designed to exclude the hydrophobic transmembrane segment and to encode amino acid residues 25-310, was prepared by PCR using P1 genomic DNA, and the primer pair EBER1300 sol (5′-[…]) (SEQ ID NO:3) and EBER1310 (5′-[…]) (SEQ ID NO:4) (FIG. 1), which included BamHI restriction sites. PCR product was cloned into the BamHI site of pAcGP67B (Pharmingen). An expression construct (pVL-β3Gal-T5-full) designed to encode the full coding sequence (from first ATG, FIG. 1) was prepared by PCR with P1 genomic DNA using the primer pair EBER1309 (5′-[…]) (SEQ ID NO:5) and EBER1310. This PCR product was cloned into the BamHI site of pVL1193 (Pharmingen). Both soluble and full length constructs were fully sequenced to confirm fidelity. Plasmids pAcGP67-β3GalT5-sol and pVL-β3Gal-T5-full were co-transfected with Baculo-Gold™ DNA (Pharmingen) as described previously (Bennett, E. P., Hassan, H. and Clausen, H. cDNA cloning and expression of a novel human UDP-N-acetyl-alpha-D-galactosamine. Polypeptide N-acetyl-galactosaminyl-transferase, GalNAc-T3. J. Biol. Chem. 271:17006-17012, 1996). Recombinant Baculo-virus were obtained after two successive amplifications in Sf9 cells grown in serum-containing medium, and titers of virus were estimated by titration in 24-well plates with monitoring of enzyme activities. […] Polypeptide N-acetyl-galactosaminyl-transferase, GalNAc-T3. J. Biol. Chem. 271:17006-17012, 1996). For large scale expression amplified virus was used to infect High Five™ cells grown in serum-free media (Invitrogen) in upright roller bottles shaking at 140 rpm and 27° C.
(§2) The kinetic properties were determined with partially purified, secreted forms of the enzymes. Semipurification of enzymes from serum-free medium of infected High-Five™ cells was performed by sequential Amberlite, DEAE-Sephacel and 5-Sepharose chromatography as described previously (Wandall, H. H., Hassan, H., Mirgorodskaya, E., et al. Substrate specificities of three. members of the human UDP-N-acetyl-alpha-D-galactosamine:Polypeptide Nacetylgalactosaminyltransferase family, GalNAc-T1, -T2, and -T3. J. Biol. Chem. 272:23503-23514, 1997). Comparisons of enzymes were performed relatively to the activity obtained with βGlcNAc-Bz1 (Tables II and III). Full length enzymes were assayed with 1% Triton CF54 homogenates of washed cells. Enzyme assays were performed in 50 μl total reaction mixtures containing 25 mM Cacodylate (pH 7.5), 10 mM MnCl2, 0.25% Triton X-100, 100 μM UDP-[^14C]-Gal (2,600 cpm/nmol) (Amersham), and varying concentrations of acceptor substrates (Sigma) (see Table I for structures). Reaction products were quantified by Dowex-1 chromatography. […] The transfer of Gal was evaluated after acid precipitation by filtration through Whatman GF/C glass fibre filters. […] Assays with glycolipid acceptors were conducted as previously described (Holmes, E. H. Characterization and membrane organization of beta 1-3- and beta 1-4-galactosyltransferases from human colonic adenocarcinoma cell lines Cob 205 and SW403: basis for preferential synthesis of type 1 chain lacto-series carbohydrate structures. Arch Biochem Biophys 270:630-646, 1989) in reaction mixtures containing 2.5 μmol HEPES buffer, pH 7.2, μmol MnCl2, 100 μg taurodeoxycholate or Triton CF-54, 20 μg acceptor glycolipid, 15 nmol UDP-[^14C]-galactose (13,000 cpm/nmol) and enzyme in a total volume of 100 μl. Conditions for incubation and product isolation were as previously described (Id.).

β4Gal-T3 = molecular target: T2, β4Gal-T3 (Homo sapiens, UniProt O60512); assay: Galactosyltransferase assay, recombinant β4Gal-T3, saccharide acceptors; format: biochemical
T2 construct: The kinetic properties were determined with partially purified, secreted forms of the enzymes; made in house; host or cells: baculovirus; insect cells (Sf9 / High Five)
Procedure: as §1, §2

T2 sequence (O60512 32-393 limits assumed): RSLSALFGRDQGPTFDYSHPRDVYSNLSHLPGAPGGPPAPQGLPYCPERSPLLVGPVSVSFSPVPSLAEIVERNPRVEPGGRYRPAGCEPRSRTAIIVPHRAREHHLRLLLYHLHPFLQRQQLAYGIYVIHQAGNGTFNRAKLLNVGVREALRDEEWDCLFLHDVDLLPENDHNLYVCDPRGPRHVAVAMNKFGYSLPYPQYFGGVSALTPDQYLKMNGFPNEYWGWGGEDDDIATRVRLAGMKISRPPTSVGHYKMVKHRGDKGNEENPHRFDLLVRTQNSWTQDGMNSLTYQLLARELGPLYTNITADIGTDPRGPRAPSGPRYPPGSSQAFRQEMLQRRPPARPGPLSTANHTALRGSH

SMILES	β4Gal-T2 activity with βGlcNAc-Bzl (β4Gal-T2; β-D-GlcNAc-Bzl at 0.25 mM) [nmol/min]	β4Gal-T3 activity with βGlcNAc-Bzl (β4Gal-T3; β-D-GlcNAc-Bzl at 2 mM) [nmol/min]	β4Gal-T2 activity, acceptor 0.2 mM (β4Gal-T2) [nmol/min]	β4Gal-T2 ratio to value with βGlcNAc-Bzl, acceptor 0.2 mM (β4Gal-T2)	β4Gal-T2 activity, acceptor 2 mM (β4Gal-T2; 2 mM) [nmol/min]	β4Gal-T2 ratio to value with βGlcNAc-Bzl, acceptor 2 mM (β4Gal-T2; 2 mM)	β4Gal-T3 activity, acceptor 0.2 mM (β4Gal-T3; 0.2 mM) [nmol/min]	β4Gal-T3 ratio to value with βGlcNAc-Bzl, acceptor 0.2 mM (β4Gal-T3; 0.2 mM)	β4Gal-T3 activity, acceptor 2 mM (β4Gal-T3; 2 mM) [nmol/min]	β4Gal-T3 ratio to value with βGlcNAc-Bzl, acceptor 2 mM (β4Gal-T3; 2 mM)
CC(=O)N[C@H]1[C@H](OCc2ccccc2)O[C@H](CO)[C@@H](O)[C@@H]1O [β-D-GlcNAc-Bzl]	0.03	0.03	–	–	–	–	–	–	–	–
CC(=O)NC1C(OC2C(O)C(CO)OC(Oc3ccc([N+](=O)[O-])cc3)C2NC(C)=O)OC(CO)C(O)C1O [β-D-GlcNAc-(1–3)-α-D-GalNAc-p-Nph]	–	–	0.2	(0.6)	0.01	(0.3)	0.1	(0.3)	0.03	(1.0)
CC(=O)N[C@H]1[C@H](OC[C@H]2O[C@H](Oc3ccc([N+](=O)[O-])cc3)[C@H](NC(C)=O)[C@@H](O[C@@H]3O[C@H](CO)[C@H](O)[C@H](O)[C@H]3O)[C@H]2O)O[C@H](CO)[C@@H](O)[C@@H]1O [βGlcNAc(1,6)[βGal(1,3)]αGalNAc-p-Nph]	–	–	0.03	(1.0)	–	–	–	–	–	–
